Results taken from PMC4409337, “Immucillins Impair Leishmania (L.) infantum chagasi and Leishmania (L.) amazonensis Multiplication In Vitro” (PLoS ONE, 2015).

How the values were obtained:
[1] = Macrophage viability and cytotoxicity (Trypan Blue); conditions: female, BALB/c, mouse, peritoneal macrophages
Description: Alternatively, the immucillins were added at 0, 24 and 48 h and viability assessed after 72h. […] The amastigote growth was assessed 24 h after the last drug addition, on 200 cells in Giemsa stained coverslips and expressed as phagocytic index = percent of infected macrophages x average number of intracellular amastigotes. […] All experiments with mice were reviewed and approved by the Animal Care and Use Committee of the Instituto de Biofísica Carlos Chagas Fo.-UFRJ (CAUAP-CONCEA, Brazil, IMPPG-016) and were performed according to the guidelines of the National Institutes of Health, USA. We made all efforts in order to minimize animal suffering.

[2] = tested on: L. (L.) amazonensis promastigotes; test: In vitro growth of promastigotes in FBS supplemented Schneider's insect medium; format: cell-based, Leishmania (L.) amazonensis; conditions: Leishmania amazonensis
From the text: The strain of Leishmania (L.) infantum chagasi MHOM/BR/1974/PP75 was obtained from the Leishmania Type Culture Collection (Fundacão Oswaldo Cruz, Rio de Janeiro, RJ, Brazil) and the strain of Leishmania (L.) amazonensis (MHOM/BR/1975/Josefa) was kindly given by Professor Rosâ[…] from Universidade Federal do Rio de Janeiro. Promastigotes were maintained by weekly transfers in screw-capped glass tubes containing Schneider's insect medium (Sigma Aldrich, MO, USA), pH 7.0, supplemented with 10% Fetal Bovine Serum (FBS) at 26°C. Stock solutions (20 mM) of immucillins IA […] prepared using Milli-Q purified water. Log phase promastigotes of L. (L.) infantum chagasi and L. […] Promastigotes were recorded in a Neubauer chamber after 24, 48, 72 and 96 hours of incubation at 26°C. […] We also assayed the possibility of reversing the inhibitory effect of IA in RPMI medium by the addition of adenosine to the culture medium. The concentration of adenosine in Schneider s insect serum supplemented medium was assessed by HPLC using a C-18 reverse-phase column as described.

**Q.** For `Nc1ncnc2c(C3N[C@H](CO)[C@@H](O)[C@H]3O)c[nH]c12` (stereo partly drawn) [IA], which CC50 at 48 h [1] is on record?
**A.** 900 µM

**Q.** And the inhibition at 500 µM ([2]; 500 μM, after 96 h of culture, read-out: percent inhibition on L. (L.) amazonensis replication)?
**A.** 76%

**Q.** And the IC50 ([2]; single addition at 0 h, evaluated after 48 hours, 26°C, read-out: IC50 (CI 95%) on L. (L.) amazonensis promastigotes in vitro growth)?
**A.** 48.7 µM
